MIC and IC50 data for two compounds are collected here from patent US11976080B1, “Benzofuro[3,2-c]chromen-6-one compounds as antibacterial agents” (King Faisal University, priority 2023, dated 2024).

SMILES strings stand for the structures. ≈ marks a conversion by molar mass, not a printed value. Read-outs that look alike come from different tables or passages of the source.

Assay [1] deals with Staphylococcus aureus ATCC 29213. The assay can be described thus: In vitro antibacterial activity (CLSI dilution MIC). The class given is cell-based. Particulars: ATCC29213.
Assay [2] deals with Staphylococcus aureus ATCC BAA-1556 (MERSA resistant). Described as above. Type of assay: cell-based. Particulars: ATCCBAA1556.
For assay [3], the system named is Staphylococcus epidermidis. The description is as above. The class given is cell-based.
The subject of assay [4] is Bacillus subtilis MTCC 441. The description is as above. Particulars: MTCC441. The class given is cell-based.
In assay [5] the test system is Enterococcus faecium ATCC 35667. The description is as above. Particulars: ATCC35667. The class given is cell-based.
Assay [6] deals with Enterococcus faecium ATCC 51559 (VRE resistant). The assay is described as above. The class given is cell-based.
Assay [7] concerns Klebsiella pneumonia MTCC 618. The assay is described as above. Type of assay: cell-based. The settings on record: Klebsiella pneumoniae, MTCC618.
In assay [8] the test system is Escherichia coli MTCC 443. Described as above. Type of assay: cell-based. Particulars: MTCC443.
Assay [9] has as its system Pseudomonas aeruginosa MTCC 741. The assay is described as above. Type of assay: cell-based. The settings on record: MTCC741.
Assay [10] has as its system Mycobacterium tuberculosis H37Rv strain. The assay can be described thus: Anti-tubercular alamar blue microplate MIC assay. The settings on record: 168 h, 7 days, read-out: anti-mycobacterial activity (MIC). The class given is cell-based.
For another assay, the target named is T1, DNA gyrase from E. coli (Escherichia coli, UniProt P0AES4+P0AES6).
T1 construct: purchased Inspiralis
Briefly: Inspiralis E. coli DNA gyrase inhibition assay. The class given is biochemical. The procedure: Inhibitory potencies were investigated utilizing the Inspiralis assay on streptavidin-coated 96-well microtiter plates. First, the plates were rehydrated with buffer (20 mM Tris-HCl with pH 7.6, 0.01% w/v BSA, 0.05% v/v Tween 20, 137 mM NaCl) and the biotinylated oligonucleotide was then immobilized. After washing off the unbound oligonucleotide, the enzyme test was performed. The reaction volume of 30 μL in buffer (35 mM Tris×HCl with pH 7.5, 4 mM MgCl2, 24 mM KCl, 2 mM DTT, 1.8 mM spermidine, 1 mM ATP, 6.5% w/v glycerol, 0.1 mg/mL albumin) contained 1.5 U of DNA gyrase from E. coli, 0.75 μg of relaxed pNO1 plasmid, and 3 μL solution of the inhibitor in 10% DMSO and 0.008% Tween 20. Reaction solutions were incubated at 37° C. for 30 min. After that, the TF buffer (50 mM NaOAc with pH 5.0, 50 mM NaCl and 50 mM MgCl2) was added to terminate the enzymatic reaction. After additional incubation for 30 min at rt, during which biotinoligonucleotide-plasmid triplex was formed, the unbound plasmid was washed off using TF buffer and SybrGOLD in T10 buffer (10 mM Tris HCl with pH 8.0 and 1 mM EDTA) was added. The fluorescence was measured with a microplate reader (BioTek Synergy H4, excitation: 485 nm, emission: 535 nm). Initial screening was done at 100 or 10 μM concentration of inhibitors. […] GraphPad Prism software was used to calculate the IC50 values. […]

T1 sequence (P0AES4 whole entry, one chain of several): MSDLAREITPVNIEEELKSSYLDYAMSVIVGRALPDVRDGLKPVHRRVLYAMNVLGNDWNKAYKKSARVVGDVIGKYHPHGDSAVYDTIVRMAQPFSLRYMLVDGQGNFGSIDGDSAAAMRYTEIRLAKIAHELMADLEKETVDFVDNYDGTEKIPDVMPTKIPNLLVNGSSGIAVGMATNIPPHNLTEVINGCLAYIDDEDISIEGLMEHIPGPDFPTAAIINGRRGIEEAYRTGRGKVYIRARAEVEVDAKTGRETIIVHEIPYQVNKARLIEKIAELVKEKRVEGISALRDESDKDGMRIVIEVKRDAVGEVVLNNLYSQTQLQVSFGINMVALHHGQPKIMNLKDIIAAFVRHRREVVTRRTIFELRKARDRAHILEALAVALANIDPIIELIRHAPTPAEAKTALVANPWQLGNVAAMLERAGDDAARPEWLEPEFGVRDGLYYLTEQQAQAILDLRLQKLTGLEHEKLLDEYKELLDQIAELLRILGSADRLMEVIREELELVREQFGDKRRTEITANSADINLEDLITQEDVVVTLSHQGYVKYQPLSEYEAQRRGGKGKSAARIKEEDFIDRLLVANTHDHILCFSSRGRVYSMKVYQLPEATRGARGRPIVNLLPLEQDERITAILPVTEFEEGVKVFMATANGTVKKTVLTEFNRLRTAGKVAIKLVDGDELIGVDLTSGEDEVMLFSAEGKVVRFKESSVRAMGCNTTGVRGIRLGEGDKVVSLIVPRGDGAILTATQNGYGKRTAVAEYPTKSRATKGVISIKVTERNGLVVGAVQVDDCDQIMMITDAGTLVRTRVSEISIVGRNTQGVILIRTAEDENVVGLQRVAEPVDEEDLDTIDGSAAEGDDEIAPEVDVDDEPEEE

What is called MIC is the smallest concentration in the dilution series that meets the test's criterion for growth inhibition. In general, IC50 refers to the concentration at which inhibition is half-maximal. `CC(=O)Nc1ccc2oc3c4ccc(CC(=O)O)cc4oc(=O)c3c2c1` [Compound 5, 2-(8-acetamido-6-oxo-6H-benzofuro[3,2-c]chromen-3-yl)acetic acid]: the MIC was 1 µg/mL (≈ 2.85 µM) in [1]; 1 µg/mL (≈ 2.85 µM) in assay [2]; 2 µg/mL (≈ 5.69 µM) in [3]; 0.55 µg/mL (≈ 1.57 µM) in [4] (Bacillus subtilis MTCC 441, read-out: MIC); 0.55 µg/mL (≈ 1.57 µM) in [5]; 0.5 µg/mL (≈ 1.42 µM) in assay [6]. Further, the MIC in assay [7] (Klebsiella pneumonia MTCC 618, read-out: MIC) worked out at 0.75 µg/mL (≈ 2.13 µM); in [8], 0.75 µg/mL (≈ 2.13 µM); in [9] (Pseudomonas aeruginosa MTCC 741, read-out: MIC) it was 0.25 µg/mL (≈ 0.712 µM); in assay [10] it was 1 µg/mL (≈ 2.85 µM). Further, the IC50 at DNA gyrase from E. coli amounted to 20 nM.

Take `CN[C@H](CC(C)C)C(=O)N[C@H]1C(=O)N[C@@H](CC(N)=O)C(=O)N[C@H]2C(=O)N[C@H]3C(=O)N[C@H](C(=O)N[C@H](C(=O)O)c4cc(O)cc(O)c4-c4cc3ccc4O)[C@H](O)c3ccc(c(Cl)c3)Oc3cc2cc(c3O[C@@H]2O[C@H](CO)[C@@H](O)[C@H](O)[C@H]2O[C@H]2C[C@](C)(N)[C@H](O)[C@H](C)O2)Oc2ccc(cc2Cl)[C@H]1O` [Vancomycin, reference compound]: the figures for the minimal inhibitory concentration (MIC) in assay [4] (Bacillus subtilis), in assay [7] and in assay [9] (Pseudomonas aeruginosa) were 0.5 µg/mL (≈ 0.345 µM), above 128 µg/mL and above 128 µg/mL, respectively.
